The target of this test is T1, ERα (Homo sapiens, UniProt P03372).
T1 construct: host or cells: MCF7
T1 sequence (P03372 1-595): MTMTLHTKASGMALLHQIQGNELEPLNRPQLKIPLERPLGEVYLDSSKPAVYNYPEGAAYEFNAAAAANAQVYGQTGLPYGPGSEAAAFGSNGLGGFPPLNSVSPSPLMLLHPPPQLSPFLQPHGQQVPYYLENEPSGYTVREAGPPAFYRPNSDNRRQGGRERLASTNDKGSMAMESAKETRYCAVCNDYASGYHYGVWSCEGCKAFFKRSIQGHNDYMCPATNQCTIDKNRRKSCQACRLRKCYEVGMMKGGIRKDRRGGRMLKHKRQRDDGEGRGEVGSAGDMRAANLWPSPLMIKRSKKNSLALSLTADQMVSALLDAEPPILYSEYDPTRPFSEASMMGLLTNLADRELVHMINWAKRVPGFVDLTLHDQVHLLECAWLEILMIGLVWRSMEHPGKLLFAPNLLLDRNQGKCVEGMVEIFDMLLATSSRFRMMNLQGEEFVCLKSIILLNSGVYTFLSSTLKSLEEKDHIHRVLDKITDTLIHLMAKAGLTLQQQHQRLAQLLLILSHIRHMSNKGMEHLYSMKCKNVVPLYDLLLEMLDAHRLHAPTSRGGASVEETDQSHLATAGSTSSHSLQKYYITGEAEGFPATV
Description: Estrogen receptor degradation activity: breast cancer cell ERα in cell western assay (MCF7 cells). The test is classed as cell-based. The following applies: for % Degradation At 0.3 μM: 4 hours, relative to fulvestrant 0.1 μM positive control; for DC50: 4 hours post compound addition, concentration which degrades 50% of the estrogen receptor, read-out: Degradation IC50. As for the experimental part: Test: Estrogen Receptor Degradation Activity Said test involves measuring the in vitro degradation activity of the compounds of the Table 1a. The measurements of the degradation activities were made using a breast cancer cell ERα in cell western assay as described hereunder. MCF7 cells (ATCC) were seeded in 384 wells microplate (collagen coated) at a concentration of 10000 cells/30 μL per well in red phenol free MEM alpha medium (invitrogen) containing 5% charcoal dextran striped FBS. The following day, 9 points serial 1:5 dilution of each compound was added to the cells in 2.5 μL at final concentrations ranging from […] (in table 2), or 0.1 μM for fulvestrant (using as positive control). At 4 hours post compound addition the cells were fixed by adding 25 μL of formalin (final concentration 5% formalin containing 0.1% triton) for 10 minutes at room temperature and then washed twice with PBS. Then, 50 μL of LI-COR blocking buffer containing 0.1% Triton was added to plate for 30 minutes at room temperature. LI-COR blocking buffer was removed and cells were incubated overnight at cold room with 50 μL anti-ER rabbit monoclonal antibody (Thermo scientific MA1-39540) diluted at 1:1000 in LI-COR blocking buffer containing 0.1% tween-20. Wells which were treated with blocking buffer but no antibody were used as background control. Wells were washed twice with PBS (0.1% tween-20) and incubated at 37° C. for 60 minutes in LI-COR (0.1% tween-20) containing goat anti-rabbit antibody Alexa 488 (1:1000) and Syto-64 a DNA dye (2 μM final concentration). Cells were then washed 3 times in PBS and scanned in ACUMEN explorer (TTP-Labtech). Integrated intensities in the green fluorescence and red fluorescence were measured to determine the levels of ERα and DNA respectively. The degradation activity with respect to estrogen receptors in this test is given by the concentration which degrades 50% of the estrogen receptor (or IC50) in nM. […] DMSO−fulvestrant)).

With `CC1CCC(C2=C(c3ncc(C=C4CN(CCCF)C4)cc3F)c3ccc(C(=O)O)cc3CCC2)CC1` (mixture of isomers) [Example 188, 9-(3-fluoro-5-((1-(3-fluoropropyl)azetidin-3-ylidene)methyl)pyridin-2-yl)-8-(4-methylcyclohexyl)-6,7-dihydro-5H-benzo[7]annulene-3-carboxylic acid], the “% Degradation At 0.3 μM” value is listed as 89% and the DC50 is 1.8 nM.
The matching figures for `CC1CCc2cc(C(=O)O)ccc2C(c2ccc(C=C3CN(CCCF)C3)cc2)=C1c1ccc(Cl)cc1Cl` (racemic) [Example 166, 8-(2,4-Dichlorophenyl)-9-(4-((1-(3-fluoropropyl)azetidin-3-ylidene)methyl)phenyl)-7-methyl-6,7-dihydro-5H-benzo[7]annulene-3-carboxylic acid, racemic mixture]: 95% and 0.6 nM.
For `O=C(O)c1ccc2c(c1)CCCC([C@H]1C[C@@H]1c1ccccc1)=C2c1ccc(C=C2CN(CCCF)C2)cc1` (racemic) [Example 173, 9-(4-((1-(3-fluoropropyl)azetidin-3-ylidene)methyl)phenyl)-8-((trans)-2-phenylcyclopropyl)-6,7-dihydro-5H-benzo[7]annulene-3-carboxylic acid] the same measures were 90% and 0.7 nM.
For `CC1(C)CCCC(C2=C(c3ncc(C=C4CN(CCCF)C4)cc3F)c3ccc(C(=O)O)cc3CCC2)C1` (racemic) [Example 186, 8-(3,3-Dimethylcyclohexyl)-9-(3-fluoro-5-((1-(3-fluoropropyl)azetidin-3-ylidene)methyl)pyridin-2-yl)-6,7-dihydro-5H-benzo[7]annulene-3-carboxylic acid, racemic mixture] the same measures were 92% and 1 nM.
On to `O=C(O)c1ccc2c(c1)CCCC([C@@H]1C[C@H]1C1CCC(F)(F)CC1)=C2c1ccc(C=C2CN(CCCF)C2)cc1` (racemic) [Example 187, 8-(trans-2-(4,4-difluorocyclohexyl)cyclopropyl)-9-(4-((1-(3-fluoropropyl)azetidin-3-ylidene)methyl)phenyl)-6,7-dihydro-5H-benzo[7]annulene-3-carboxylic acid], for which the “% Degradation At 0.3 μM” value worked out at 86% and the DC50 is 1.6 nM.
For `CC1(C)CCCC(C2=C(c3ccc(C=C4CN(CCCF)C4)cc3)c3ccc(C(=O)O)cc3CCC2)C1` (single isomer, unassigned) [Example 171, 8-(3,3-dimethylcyclohexyl)-9-(4-((1-(3-fluoropropyl)azetidin-3-ylidene)methyl)phenyl)-6,7-dihydro-5H-benzo[7]annulene-3-carboxylic acid] the same measures were 88% and 0.4 nM.
The matching figures for `CC1(C)CCCC(C2=C(c3ccc(C=C4CN(CCCF)C4)cc3)c3ccc(C(=O)O)cc3CCC2)C1` (single isomer, unassigned) [Example 172, 8-(3,3-dimethylcyclohexyl)-9-(4-((1-(3-fluoropropyl)azetidin-3-ylidene)methyl)phenyl)-6,7-dihydro-5H-benzo[7]annulene-3-carboxylic acid]: 89% and 0.4 nM.
For `CC1CCc2cc(C(=O)O)ccc2C(c2ccc(C=C3CN(CCCF)C3)cc2)=C1c1ccc(Cl)cc1` (single isomer, unassigned) [Example 179, 8-(4-chlorophenyl)-9-(4-((1-(3-fluoropropyl)azetidin-3-ylidene)methyl)phenyl)-7-methyl-6,7-dihydro-5H-benzo[7]annulene-3-carboxylic acid] the same measures were 91% and 1.4 nM.
In the case of `CC1CCc2cc(C(=O)O)ccc2C(c2ccc(C=C3CN(CCCF)C3)cc2)=C1c1ccc(Cl)cc1` (single isomer, unassigned) [Example 184, 8-(4-chlorophenyl)-9-(4-((1-(3-fluoropropyl)azetidin-3-ylidene)methyl)phenyl)-7-methyl-6,7-dihydro-5H-benzo[7]annulene-3-carboxylic acid], the “% Degradation At 0.3 μM” value is listed as 90% and the DC50 is 0.4 nM.
With `O=C(O)c1ccc2c(c1)CCCC(c1ccc(Cl)cc1Cl)=C2c1ccc(C=C2CN(CCCF)C2)cc1` [Example 1, 8-(2,4-Dichlorophenyl)-9-(4-((1-(3-fluoropropyl)azetidin-3-ylidene)methyl)phenyl)-6,7-dihydro-5H-benzo[7]annulene-3-carboxylic acid], the “% Degradation At 0.3 μM” value is 96% and the DC50 came out at 0.4 nM.
The matching figures for `COc1nccc(C2=C(c3ccc(C=C4CN(CCCF)C4)cc3)c3ccc(C(=O)O)cc3CCC2)c1F` [Example 2, 8-(3-fluoro-2-methoxypyridin-4-yl)-9-(4-((1-(3-fluoropropyl)azetidin-3-ylidene)methyl)phenyl)-6,7-dihydro-5H-benzo[7]annulene-3-carboxylic acid]: 92% and 0.6 nM.
The matching figures for `Cc1cc(C(F)(F)F)ccc1C1=C(c2ccc(C=C3CN(CCCF)C3)cc2)c2ccc(C(=O)O)cc2CCC1` [Example 3, 9-(4-((1-(3-fluoropropyl)azetidin-3-ylidene)methyl)phenyl)-8-(2-methyl-4-(trifluoromethyl)phenyl)-6,7-dihydro-5H-benzo[7]annulene-3-carboxylic acid]: 90% and 0.3 nM.
For `O=C(O)c1ccc2c(c1)CCCC(c1cc(F)cc3c1CCC3)=C2c1ccc(C=C2CN(CCCF)C2)cc1` [Example 4, 8-(6-fluoro-2,3-dihydro-1H-inden-4-yl)-9-(4-((1-(3-fluoropropyl)azetidin-3-ylidene)methyl)phenyl)-6,7-dihydro-5H-benzo[7]annulene-3-carboxylic acid] the same measures were 86% and 0.8 nM.
Regarding `O=C(O)c1ccc2c(c1)CCCC(c1ccc(Cl)c(C(F)(F)F)c1)=C2c1ccc(C=C2CN(CCCF)C2)cc1` [Example 5, 8-(4-chloro-3-(trifluoromethyl)phenyl)-9-(4-((1-(3-fluoropropyl)azetidin-3-ylidene)methyl)phenyl)-6,7-dihydro-5H-benzo[7]annulene-3-carboxylic acid], the “% Degradation At 0.3 μM” value stood at 88% and the DC50 was 1 nM.
For `O=C(O)c1ccc2c(c1)CCCC(c1c(F)ccc3c1CCC3)=C2c1ccc(C=C2CN(CCCF)C2)cc1` [Example 6, 8-(5-fluoro-2,3-dihydro-1H-inden-4-yl)-9-(4-((1-(3-fluoropropyl)azetidin-3-ylidene)methyl)phenyl)-6,7-dihydro-5H-benzo[7]annulene-3-carboxylic acid] the same measures were 92% and 0.4 nM.
For `O=C(O)c1ccc2c(c1)CCCC(c1ccc3c(c1F)CCC3)=C2c1ccc(C=C2CN(CCCF)C2)cc1` [Example 7, 8-(4-fluoro-2,3-dihydro-1H-inden-5-yl)-9-(4-((1-(3-fluoropropyl)azetidin-3-ylidene)methyl)phenyl)-6,7-dihydro-5H-benzo[7]annulene-3-carboxylic acid] the same measures were 90% and 0.6 nM.
For `O=C(O)c1ccc2c(c1)CCCC(c1ccc3c(c1)CC3)=C2c1ccc(C=C2CN(CCCF)C2)cc1` [Example 8, 8-(Bicyclo[4.2.0]octa-1,3,5-trien-3-yl)-9-(4-((1-(3-fluoropropyl)azetidin-3-ylidene)methyl)phenyl)-6,7-dihydro-5H-benzo[7]annulene-3-carboxylic acid] the same measures were 86% and 0.4 nM.
For `O=C(O)c1ccc2c(c1)CCCC(c1cccc3c1CCC3(F)F)=C2c1ccc(C=C2CN(CCCF)C2)cc1` [Example 9, 8-(1,1-difluoro-2,3-dihydro-1H-inden-4-yl)-9-(4-((1-(3-fluoropropyl)azetidin-3-ylidene)methyl)phenyl)-6,7-dihydro-5H-benzo[7]annulene-3-carboxylic acid], the “% Degradation At 0.3 μM” value worked out at 90% and the DC50 turned out to be 0.6 nM.
